The subject of one assay is Hela cells. Put plainly: Phototoxicity, 24 h incubation, 1.5-15 joule/cm^2. The assay is classed as cell-based. The settings on record: 670-690 nm. As to the method:
In other experiment, the cells were incubated with photosensitizers at 37° C. for 24 hours, and irradiated by exposed on ice by a laser medical device “LD 680-2000” (wavelength of 670-690 nm) in a dose of 1.5-15 joule/cm^2.

The next assay deals with sarcoma M-1. Kind of assay: Necrotic area in sarcoma M-1 after PDT. The format is in vivo, rats. Conditions: for Necrotic area / Ratio of necrotic area to total area: PDT 100 J/cm^2 at 4 hours, mean of 25 slides. As to the method:
2 hours later the animals were killed by chloroform, the tumor was excised and fixed for one hour in 10%-HOM formalin. After fixation, transverse sections of the tumor nodule in its highest diameter were made, and pictures were taken by a camera connected to a computer.
For quantitative assessment of necroses formed after PDT, computer analysis of color tints of histo-topographic tumor slides was performed using a special program.
The program included an algorithm of blue color identification (Evans blue), which stained viable areas of the tumor. Tumor areas killed from direct cytotoxic effect or due to structural-functional disorders of microcirculation were not stained in blue. The ratio of all non-stained dots to the total amount of dots in the fence of the tumor slide was considered to be the destruction efficiency.
For this purpose, a laser medical instrument “ ? 680-2000” (BIOSPEC, Moscow) was used to perform the exposure at a wavelength of 670 nm in a dose of 100 J/cm^2. The power density was 0.51 W/cm^2, the output power was 0.4 W, and the spot light diameter was 1 cm. Time of exposure was […]. Monitoring over radiating power was conducted by a universal power meter included in the laser device “ ? 4680-2000”.

Where “and” joins values, the source holds several entries; their conditions need not be identical. Equal entries are not always repeated.

As to “[γ-(6-aminohexyl)folic acid]-chlorin e6 [chlorin e6 conjugate]”, the “phototoxicity in survival test” value in the assay with Hela cells is “improved the photosensitivity”. Besides, the results for the Necrotic area in the assay on sarcoma M-1 (2.5 mg/kg), in the assay with sarcoma M-1 (5.0 mg/kg) and in the assay with sarcoma M-1 (10.0 mg/kg) were 0.637 cm^2, 0.741 cm^2 and 1.205 cm^2, respectively. Moreover, the “Ratio of necrotic area to total area” value is 25.56±1.65% and 25.56% in the assay on sarcoma M-1 (2.5 mg/kg); 34.16±2.16% and 34.16% in the assay on sarcoma M-1 (5.0 mg/kg); 66.16±3.83% and 66.16% in the assay with sarcoma M-1 (10.0 mg/kg); 66.16% in the assay with sarcoma M-1 (10.0 mg/kg, listed as chlorin e6-folic acid conjugate). In addition, in the assay with sarcoma M-1 (10.0 mg/kg, 1 hr exposure), the “anti-tumor effect compared among dose and exposure groups” value is “most prominent anti-tumor effect”.

These data come from US8735439B2, “Chlorin e6-folic acid conjugate, preparation method thereof, and a pharmaceutical composition for the treatment of cancer comprising the same” (Diatech Korea Co., Ltd., priority 2009, dated 2014).
